US20210087279A1, “REGULATABLE CHIMERIC ANTIGEN RECEPTOR” (Novartis AG, priority 2014, published 2021)

What was measured:
Format in all cases: cell-based
[1] = tested on: NFAT activation in Jurkat cells with NFAT-LUC reporter (JNL); experiment: Jurkat NFAT-LUC reporter assay, EGFRvIII RCAR with intracellular FKBP/FRB switch
Protocol: Jurkat cells with NFAT-LUC reporter (JNL) were grown to the density of 0.5×10^6/ml in Jurkat cell growth media with puromycin at 0.5 μg/ml. For each transfection 2.5×10^6 cells were spin down at 100 g for 10 minutes. Two μg of DNA per construct were used per transfection. Amaxa Nucleofector solution V and supplement I was mixed and 100 μl was added into the tube with DNA construct. The mixture was then added to the cells and transferred to the electroporation cuvette. Electroporation was done under setting X-001 using Amaxa Nucleofector II Device. 0.5 ml of growth media was added immediately after eletroporation and the mixture were transferred into 2 ml growth media in one well of the 6-well plate. After one hour, A/Z compound was applied at the final concentration of 500 nM. The cells were incubated in the 37° C. incubator with 5% CO2 overnight for 18 hrs. Tissue culture plate was coated with 5 μg/ml of EGFRvIII-Fc or IgG1-Fc for 2 hrs, blocked with the blocking buffer (DPBS with 5% serum) for 1 hour. The transfected cells with or without A/Z compound were resuspended and added to the target plate with 100 μl per well and incubated for 18 hrs. Luciferase One Glo reagent 100 μl was added per well. The samples were incubated for 5 min at 37° C. and then luminescence is measured using a luminometer.
Specifically, JNL were grown to the density of 0.5×10^6/ml in Jurkat cell growth media with puromycin at 0.5 μg/ml. For each transfection 2.5×10^6 cells were spin down at 100 g for 10 minutes. Two μg of DNA per construct were used per transfection. Amaxa Nucleofector solution V and supplement I was mixed and 100 μl was added into the tube with DNA construct. […] The samples were incubated for 5 min at 37° C. and then luminescence is measured using a luminometer.
To determine the dose response, rapaloque (“A/C heterodimerizer” AP21967), at various concentrations, was applied to the transfected cells that were cotransfected with EGFRvIII clone 139-CD8alphaTM-FKBP (SEQ ID NO: 5, construct 66) and FRB-4-1BB-CD3zeta (SEQ ID NO: 6, construct 67) and NFAT activation was measured. […]

[2] = tested on: NFAT activation in Jurkat cells with NFAT-LUC reporter (JNL), PDL1-Fc target; experiment: Activation assay of redirected inhibitory PD1 CAR / PD1 RCAR
Protocol: Jurkat cells with NFAT-LUC reporter (JNL) were grown to the density of 0.5×10^6/ml in Jurkat cell growth media with puromycin at 0.5 μg/ml. For each transfection 3×10^6 cells were spin down at 100 g for 10 minutes. Four μg DNA per construct were used per transfection. Amaxa Nucleofector solution V and supplement I was mixed and 100 μl was added into the tube with DNA construct. The mixture was then added to the cells and transferred to the electroporation cuvette. Electroporation was done under setting X-001 using Amaxa Nucleofector II Device. 0.5 ml of growth media was added immediately after eletroporation and the mixture were transferred into 2 ml growth media in one well of the 6-well plate. After two hours, the rapalogue compound at various concentrations was added to cells. The cells were applied to tissue culture plate wells that were coated by the target. Tissue culture plate was coated with 5 μg/ml of PDL1-Fc or IgG1-Fc or any target for 2 hrs at 37° C., then blocked with the blocking buffer (DPBS with 5% serum) for 30 minutes. The transfected cells were added to the target plate with 100 μl per well and incubated further for 16 hrs. Luciferase One Glo reagent 100 μl was added per well. The samples were incubated for 5 min at 37° C. and then luminescence is measured using Envision plate reader. […]

[3] = tested on: NFAT activation in Jurkat cells with NFAT-LUC reporter (JNL); experiment: Jurkat NFAT-LUC assay, EGFRvIII RCAR with extracellular FKBP/FRB switch; settings: 250 nM, external switch
Protocol: In this example, the switch is designed by fusing a leader sequence to the 139 scFv followed by linker and the first switch domain—FKBP, a hinge region and a transmembrane region (SEQ ID NO: 31). The second construct is designed by fusing a leader sequence to the FRB switch domain, a transmembrane region and the intracellular signaling domains 4-1BB followed by CD3zeta (SEQ ID NO: 32). The extracellular switch transfections and activations were carried out essentially as described for the intacellular switches in Example 1.

[4] = tested on: NFAT activity in Jurkat cells with NFAT-LUC reporter (JNL); experiment: Activation of RCAR with extracellular FKBP/FRB switch by RAD001; settings: for RAD001 dose at which NFAT activity peaked: 0-50 nM tested
Protocol: In this example, the activation of RCAR with an extracellular switch was evaluated in the presence of the dimerization molecule RAD001. Four RCARs were tested: two half switch constructs, e.g., with the dimerization switch in both orientations (FIG. 34A), and two full switch constructs, e.g., with the dimerization switch in both orientations (FIG. 34B), where the dimerization switch is an extracellular FKBP/FRB dimerization, as depicted in FIGS. 34A and 34B. In the half-switch constructs, the antigen binding member comprises a scFV domain, an extracellular switch domain, a transmembrane domain, an intracellular costimulatory signaling domain 4-1BB, and the intracellular signaling member comprises an extracellular switch domain, a transmembrane domain, and an intracellular primary signaling domain, CD3zeta (FIG. 34A). In the full-switch constructs, the antigen binding member comprises a scFv domain, an extracellular switch domain, and a transmembrane domain, and the intracellular signaling member comprises an extracellular switch domain, a transmembrane domain, an intracellular costimulatory signaling domain, 4-1BB, and an intracellular primary signaling domain, CD3zeta (FIG. 34B).
The RCAR constructs were expressed in a Jurkat reporter cell line. Jurkat cells with NFAT-LUC reporter (JNL) were grown to the density of 0.5×10^6/ml in Jurkat cell growth media with puromycin at 0.5 μg/ml. For each transfection 2.5×10^6 cells were spin down at 100 g for 10 minutes. Two μg of DNA per RCAR construct were used per transfection. Amaxa Nucleofector solution V and supplement I was mixed and 100 μl was added into the tube with DNA construct. The mixture was then added to the cells and transferred to the electroporation cuvette. Electroporation was done under setting X-001 using Amaxa Nucleofector II Device. […]
After one hour, RAD001 compound was applied at various concentrations: 0 nM, 0.01 nM, 0.03 nM, 0.1 nM, 0.3 nM, 1 nM, 5 nM, and 50 nM. […] The samples were incubated for 5 min at 37° C. and then luminescence was measured using Envision plate reader.

[5] = tested on: reporter under NFAT control in JNL cells; experiment: Dimerization molecule dose response, single vector construct 143775 in JNL cells, CD19 target; settings: nM to sub-nM doses
From the text: The constructs and viral particles were made and tested essentially as described in Example 11. Viral particles were introduced into JNL cells and evaluated for activity essentially as described in Example 1 except that the target was CD19 (as opposed to EGFRviii).
Construct 143775 was introduced into cells and the affect of dimerization molecule concentration on activation evaluated essentially as described in Example 14.

[6] = tested on: NFAT activity in Jurkat cells with NFAT-LUC reporter (JNL); experiment: Activation of RCAR half switches (intracellular FKBP/FRB) by RAD001; settings: both half switches (CD28 or 4-1BB); 0-10 nM tested
Protocol: In this example, the activation of a RCAR half switch was evaluated in the presence of the dimerization molecule RAD001. Two RCAR constructs were tested where the dimerization switch is an intracellular FKBP/FRB dimerization switch, and the switch domains are located in both orientations with respect to the antigen binding member and the intracellular member. For example, the antigen binding member comprises a scFV domain, a transmembrane domain, an intracellular switch domain, and an intracellular costimulatory signaling domain; and the intracellular signaling member comprises an […] switch domain, a transmembrane domain, and an intracellular primary signaling domain, e.g., CD3zeta (FIG. 36A).
Jurkat cells with NFAT-LUC reporter (JNL) were grown to the density of 0.5×10^6/ml in Jurkat cell growth media with puromycin at 0.5 μg/ml. For each transfection 2.5×10^6 cells were spin down at 100 g for 10 minutes. Two μg of DNA per construct were used per transfection. […]
After one hour, RAD001 compound was delivered at 50 nM when testing RCARs with different costimulatory signaling domains (FIGS. 36A-B), or various concentrations: 0 nM, 0.01 nM, 0.03 nM, 0.1 nM, 0.3 nM, 1 nM, 3 nM, and 10 nM (FIGS. 37A-B). […] The samples were incubated for 5 min at 37° C. and then luminescence is measured using Envision plate reader.

[7] = tested on: luciferase-expressing Nalm6 (human pre-B ALL) cell line; experiment: Killing assay with RCAR-expressing primary T cells; settings: effector:target 1:1; 20 hours
Protocol: The ability for RCAR T cells (RCAR T cell generation described above) to target and kill tumor cells was assessed in vitro. A luciferase-based assay was used, with tumor cell lines expressing luciferase reporters. Target cells (tumor cells) were plated at 25,000 cells/well. RCAR T cells, as well as standard CAR-expressing T cells and T cells expressing no CARs were added at the effector:target ratio 1:1 in duplicates. Additionally, RAD001 was added in seven 5-fold dilution steps, starting at 50 nM. One duplicate received pure medium, no RAD001. The cells were cultured for 20 hours, after which the luminescence of each well was detected to determine the percentage of target cells killed (BrightGlo, Promega protocol). Specific killing (%)=[…]. The luciferase-expressing Nalm6 (human pre-B ALL) cell line was used as the target cell.

Row | SMILES | fold of induction of NFAT mediated by the target ([1]; 0.8 nM rapalogue, constructs 66 and 67) | fold activation of NFAT ([1]; 500 nM to as low as 20 nM, constructs 66 and 67, FIG. 12B) | target regulated activation ([1]; 500 nM, EGFRvIII-Fc target, FIG. 12A) | induction of signaling by PDL-1 target ([2]; 500 nM AP21967, PD1 RCAR (PD1-ECD-TM-FRB and FKBP-41BB-CD3 zeta)) | dose response, activation of NFAT signaling ([2]; varying concentrations, PD1 RCAR, FIG. 18) | target regulated activation [3] | RAD001 dose at which NFAT activity peaked ([4]; extracellular RCAR full switches) [nM] | inhibition of NFAT activity at higher dosages ([4]; extracellular half switch 1, 5 nM and 50 nM) | RAD001 dose at which NFAT activity peaked ([4]; extracellular half switch 2) [nM] | activation [5] | RAD001 concentration at which NFAT activity peaked [6] [nM] | RAD001 concentration at maximal killing by RCAR-expressing T cells [7]
1 | CO[C@H]1[C@@H](O)[C@H](C)C[C@H](C)/C=C/C=C/C=C(\C)[C@@H](c2c[nH]c3c(C)cccc23)C[C@@H]2CC[C@@H](C)[C@@](O)(O2)C(=O)C(=O)N2CCCC[C@H]2C(=O)O[C@H]([C@H](C)CC2CC[C@@H](O)[C@H](OC)C2)C[C@H](O)[C@H](C)/C=C(\C)[C@H]1O (stereo partly drawn) [AP21967] | 2-3 fold | remained relatively constant | significant target regulated activation | significant induction of signaling | potent even at sub nM concentration | significant target regulated activation | – | – | – | – | – | –
2 | CO[C@H]1C[C@@H]2CC[C@@H](C)[C@@](O)(O2)C(=O)C(=O)N2CCCC[C@H]2C(=O)O[C@H]([C@H](C)C[C@@H]2CC[C@@H](OCCO)[C@H](OC)C2)CC(=O)[C@H](C)/C=C(\C)[C@@H](O)[C@@H](OC)C(=O)[C@H](C)C[C@H](C)/C=C/C=C/C=C/1C [RAD001, (1R,9S,12S,15R,16E,18R,19R,21R,23S,24E,26E,28E,30S,32S,35R)-1,18-dihydroxy-12-{(1R)-2-[(1S,3R,4R)-4-(2-hydroxyethoxy)-3-methoxycyclohexyl]-1-methylethyl}-19,30-dimethoxy-15,17,21,23,29,35-hexamethyl-11,36-dioxa-4-aza-tricyclo[30.3.1.04,9]hexatriaconta-16,24,26,28-tetraene-2,3,10,14,20-pentaone] | – | – | – | – | – | – | 1 | no inhibition of activity | 1 | effective at a broad range of concentrations | 1 | around 1 nM
